Experimental findings from patent US8048825B2, “Haloalkylsulfonanilide derivatives or salt thereof, herbicide comprising the derivatives as active ingredient, and use of the herbicide” (Nihon Nohyaku Co., Ltd., priority 2006, dated 2011) are described below.

Holding throughout (format): in vivo
In test [1] the test system is Lindernia procumbens. In words: Herbicidal efficacy on paddy field weeds of pre-emergence stage (Pre), Test Example 1. Particulars: 1000 g/ha as active ingredient, examined after 21 days. Summed up: (§1)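 Pre-emergence paddy test: 1000 g/ha active ingredient, formulated and water-diluted, dropped onto 5 cm floodwater one day after sowing both weeds in clay loam. After 21 days in greenhouse, inhibition relative to untreated control rated on 0 (0%) to 5 (100%) scale.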

Test [2] has as its system Scirpus juncoides. The test is described as above. The following applies: 1000 g/ha as active ingredient, examined after 21 days. Summed up: as §1
Test [3] relates to Scirpus juncoides. In words: Herbicidal effect on paddy field weeds of post-emergence stage (Post), Test Example 2. Particulars: one-leaf stage, 1000 g/ha as active ingredient, examined after 21 days. Summed up:
(§2)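 Post-emergence paddy test: formulated compound added to 5 cm standing water at 1000 g/ha a.i. when weeds reached one-leaf stage in clay loam pots in greenhouse. Growth inhibition rated 21 days later versus untreated control on a 0 (0%) to 5 (100%) scale.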

The next test has as its system Echinochloa crus-galli. Described as above. The following applies: one-leaf stage, 1000 g/ha as active ingredient, examined after 21 days. Summed up:
as §2

Test [4] concerns Lindernia procumbens. The test is described as above. Particulars: one-leaf stage, 1000 g/ha as active ingredient, examined after 21 days. Summed up:
as §2

Each structure is given as a SMILES string.

`O=S(=O)(Nc1ccccc1CN1CCCCOC1=S)C(F)(F)F` [2-12]: in the test with Lindernia procumbens [1], the “Lindernia procumbens pre (herbicidal effect)” value (“Lindernia procumbens pre” below) is given as 4 (90%-99% herbicidal effect, phytotoxicity). In the test with Scirpus juncoides [2], the “Scirpus juncoides pre (herbicidal effect)” value (shortened to “Scirpus juncoides pre”) is listed as 4 (90%-99% herbicidal effect, phytotoxicity). For the same compound, in the test with Scirpus juncoides [3], the “Scirpus juncoides post (herbicidal effect)” value (from here on “Scirpus juncoides post”) was 4 (90%-99% herbicidal effect, phytotoxicity). Also, the “Echinochloa crus-galli post (herbicidal effect)” value (from here on “Echinochloa crus-galli post”) with Echinochloa crus-galli is given as 4 (90%-99% herbicidal effect, phytotoxicity).

For `CC(C)COC(=O)N(c1ccccc1CN1CCCCOC1=S)S(=O)(=O)C(F)(F)F` [2-17], in the test on Scirpus juncoides [2], the “Scirpus juncoides pre” value is listed as 4 (90%-99% herbicidal effect, phytotoxicity). Moreover, the “Scirpus juncoides post” value in the test with Scirpus juncoides [3] was 4 (90%-99% herbicidal effect, phytotoxicity). In addition, the “Echinochloa crus-galli post” value in the test on Echinochloa crus-galli is on record as 4 (90%-99% herbicidal effect, phytotoxicity).

For `CC1(C(F)(F)F)CCN(Cc2ccccc2NS(=O)(=O)C(F)(F)F)C(=O)O1` (stereo not drawn) [Compound 1-80], in the test on Lindernia procumbens [1], the “Lindernia procumbens pre” value is given as 4 (90%-99% herbicidal effect, phytotoxicity). The “Scirpus juncoides pre” value with Scirpus juncoides [2] is reported as 4 (90%-99% herbicidal effect, phytotoxicity). Also, the “Scirpus juncoides post” value in the test with Scirpus juncoides [3] is reported as 4 (90%-99% herbicidal effect, phytotoxicity). Further, the “Echinochloa crus-galli post” value with Echinochloa crus-galli is listed as 4 (90%-99% herbicidal effect, phytotoxicity).

Consider `CC(C)COC(=O)N(c1ccccc1CN1CCC(C)(C(F)(F)F)OC1=O)S(=O)(=O)C(F)(F)F` (stereo not drawn) [Compound 1-85], for which the “Lindernia procumbens pre” value in the test on Lindernia procumbens [1] is 4 (90%-99% herbicidal effect, phytotoxicity). Further, in the test with Scirpus juncoides [2], the “Scirpus juncoides pre” value is on record as 4 (90%-99% herbicidal effect, phytotoxicity). In addition, in the test with Scirpus juncoides [3], the “Scirpus juncoides post” value is listed as 4 (90%-99% herbicidal effect, phytotoxicity). In the test on Echinochloa crus-galli, the “Echinochloa crus-galli post” value was 4 (90%-99% herbicidal effect, phytotoxicity).

In the case of `CC(C)COC(=O)N(c1ccccc1CN1CCC(c2ccccc2)(C2CC2)OC1=O)S(=O)(=O)C(F)(F)F` (stereo not drawn) [Compound 1-188], in the test on Lindernia procumbens [1], the “Lindernia procumbens pre” value was 4 (90%-99% herbicidal effect, phytotoxicity). The “Scirpus juncoides pre” value in the test with Scirpus juncoides [2] was 4 (90%-99% herbicidal effect, phytotoxicity). Besides, the “Scirpus juncoides post” value in the test on Scirpus juncoides [3] is recorded as 4 (90%-99% herbicidal effect, phytotoxicity). Further, the “Echinochloa crus-galli post” value with Echinochloa crus-galli was 4 (90%-99% herbicidal effect, phytotoxicity).

For the compound `COCN(c1ccccc1CN1CCC(c2ccccc2)(C2CC2)OC1=O)S(=O)(=O)C(F)(F)F` (stereo not drawn) [Compound 1-191], the “Lindernia procumbens pre” value with Lindernia procumbens [1] is reported as 4 (90%-99% herbicidal effect, phytotoxicity). The “Echinochloa crus-galli post” value in the test with Echinochloa crus-galli was 4 (90%-99% herbicidal effect, phytotoxicity).

As for `Cc1ccccc1C1(C)CCN(Cc2ccccc2NS(=O)(=O)C(F)(F)F)C(=O)O1` (stereo not drawn) [Compound 1-404], in the test with Lindernia procumbens [1], the “Lindernia procumbens pre” value is 5 (100% herbicidal effect, phytotoxicity). The “Scirpus juncoides pre” value with Scirpus juncoides [2] was 4 (90%-99% herbicidal effect, phytotoxicity). Further, in the test with Lindernia procumbens [4], the “Lindernia procumbens post (herbicidal effect)” value (“Lindernia procumbens post” for short) is 5 (100% herbicidal effect, phytotoxicity). Further, the “Scirpus juncoides post” value in the test with Scirpus juncoides [3] was 4 (90%-99% herbicidal effect, phytotoxicity).

With `CCOC(=O)N(c1ccccc1CN1CCC(CC)(CC(C)C)OC1=O)S(=O)(=O)C(F)(F)F` (stereo not drawn) [Compound 1-419], the “Lindernia procumbens pre” value in the test with Lindernia procumbens [1] was 5 (100% herbicidal effect, phytotoxicity). For the same compound, the “Scirpus juncoides pre” value in the test with Scirpus juncoides [2] is given as 5 (100% herbicidal effect, phytotoxicity). In the test on Lindernia procumbens [4], the “Lindernia procumbens post” value was 5 (100% herbicidal effect, phytotoxicity). Moreover, the “Scirpus juncoides post” value with Scirpus juncoides [3] was 4 (90%-99% herbicidal effect, phytotoxicity).

In the case of `CCC1(CC(C)C)CCN(Cc2ccccc2N(C(=O)OCC(C)C)S(=O)(=O)C(F)(F)F)C(=O)O1` (stereo not drawn) [Compound 1-422], the “Lindernia procumbens pre” value in the test on Lindernia procumbens [1] is listed as 5 (100% herbicidal effect, phytotoxicity). Moreover, the “Scirpus juncoides pre” value in the test on Scirpus juncoides [2] was 5 (100% herbicidal effect, phytotoxicity). Further, in the test on Lindernia procumbens [4], the “Lindernia procumbens post” value is 5 (100% herbicidal effect, phytotoxicity). Moreover, the “Scirpus juncoides post” value in the test with Scirpus juncoides [3] is 4 (90%-99% herbicidal effect, phytotoxicity).
